Assay results from patent US5849753A, “Pyridyl imidazole derivatives and processes for the preparation thereof” (Korea Research Institute of Chemical Technology, priority 1994, dated 1998).

What was measured:
renal hypertensive rat = test: Blood pressure lowering effect in renal hypertension (renal hypertensive rats, intravenous or oral); format: in vivo, male Sprague-Dawley rats; conditions: 3 mg, read-out: Maxium Blood Pressure Lowering Effect(%)
From the text: To induce renal hypertension, left renal artery of 4 week-old male Sprague-Dawley rats(from The Korea Research Institute of Chemical Technology) was ligated. The rats were anesthetized with ether and the surgical region on the left abdomen of the rat was shaved, disinfected, and then incised about 1 cm vertically. The renal artery near abdominal aorta was isolated carefully from surrounding tissues and veins, and then ligated completely with a suture(4/0 sterile surgical silk). The muscular strata and skin of the surgical area were sutured with a suture(4/0 sterile surgical silk). The surgical region was disinfected to prevent infection and thereafter, 200 to 250 mg/Kg/day of cephazolin sodium was injected intramuscularly for 2 days. 6 to 8 days after the ligation, rats showing systolic pressure of more than 180 mmHg were selected for renal hypertension test. The blood pressure was determined by a tail-cuff method from the tail under unanesthetized condition(Gerold, M. et al., Arzneimittrel-Forsch, 18, 1285(1968)).
Each of the compounds to be tested was administered intravenously or orally into the renal hypertensive rat. The blood pressure of the rats was determined by direct method(Chiu, A. T. et al., J. Pharmacol. Exp. Ther. 250, 867(1989)) using a catheter. The rats were anesthetized with ketamine hydrochloride(125 mg/kg, i.p.) and a catheter was filled with saline and inserted into a carotid artery and carotid vein. The surgical area was sutured with a metal clip. The rats were relaxed at least 3 hours and the catheter in the carotid artery was adapted to an isotec pressure transducer to determine their blood pressure and heart rate with a physiograph(Linearcorder WR3310). After the blood pressure was stabilized, the test compound was administered intravenously or orally. For intravenous administration, the administered volume and washing volume were 1.0 ml/Kg and 0.2 ml, respectively. The blood pressure and heart rate were measured in regular intervals up to 24 hours after the administration of the test compound and compared with those measured after the administration of the control compound Losartan.
The test compound was dissolved in 0.05N KOH for intravenous administration and suspended in Tween 80 for oral administration.

angiotensin II receptor = test: Angiotensin II Receptor Binding Assay ([3H] angiotensin II binding inhibition); conditions: [3H] angiotensin II ligand; 60 minutes, 25° C.; test concentration not given
Description: In accordance with the procedure disclosed in Chiu, A. T. et al., Eur. J. Pharm., 157, 13(1981), a ligand marked with a radioisotope was reacted with an angiotensin II receptor and the reactant was filtered with a glass fiber to remove unreacted ligand. After washing the filter, the amount of the remaining isotope was measured to determine the binding activity of the ligand, as described below in detail.
Sprague-Dawley rats and Wistar rats of 250 to 350 g(from The Korea Research Institute of Chemical Technology) were tested and the test procedures were carried out at 4° C., unless otherwise specified. Adrenal gland was separated from the Sprague-Dawley rats(liver, in the case of Wistar rats) into cortex and medulla. The separated adrenal cortex and medulla were washed with a sucrose buffer solution (0.2M sucrose, 1 mM EDTA, 10 mM Tris, pH 7.2) and homogenized in the same buffer solution by using a Teflon pestle and a Brinkmann homogenizer. The homogenates were centrifuged at 3,000 Xg for 10 minutes to remove precipitates and further centrifuged at 12,000 Xg for 13 minutes. The final supernatants were centrifuged at 102,000 Xg for 1 hour to obtain precipitates, which were washed with a Tris buffer solution(50 mM Tris, 5 mM MgCl2, pH 7.2) and re-centrifuged at 102,000 Xg for 1 hour. The resulting precipitates were immediately processed at the following step or stored at -70° C.
The precipitates were suspended in a Tris buffer solution. The amount of protein was determined by using a Bio-Rad DC protein analyzing kit and the protein concentration was adjusted to the amounts of: 0.2 to 0.3 mg/ml(Sprague-Dawley rat: adrenal cortex), 1.5 to 2.0 mg/ml(Sprague-Dawleyrat: adrenal medulla), and 1.5 to 2.0 mg/ml(Wistar rat: liver). To the suspension, bovine serum albumin(BSA) was added to a concentration of 0.25 wt % and the resultant was immediately processed at the following step or stored at -70° C.
(ii) Measurement of angiotensin II receptor binding capacity 50 μl(based on ligand) of [^3 H] angiotensin II(NEN, NET-446) and 10 μl of each of the test compounds with various concentrations were added to the buffer solution(50 mM Irris(pH 7.2), 5 mM MgCl2, 0.25% BSA) to adjust the final volume to be 0.5 ml. 100 μl of the receptor suspension was added thereto and the resulting solution was reacted for 60 minutes while stirring in a water bath at 25° C. 3 ml of cold buffer solution for analysis was added to cease the reaction. The isotope which was bound to the receptor was isolated from the resultant by using Brandel Cell Harvester System with Whatman glass fiber GF/C. After washing the filter, the radioactivity of the filter was determined by using a liquid scintillation counter. Binding inhibition(%) of the test compound was calculated as follows:
Binding Inhibition(%)=[{(T--B)-(S--B)}/(T--B)]×100
wherein T is cpm of the reaction product untreated with the test compound, S is cpm of the reaction product treated with the test compound, and B is cpm of blank test.

Binding Inhibition(%) (angiotensin II receptor)	Compound	change in vivo at 3 mg (renal hypertensive rat) [%]
44.5	CCc1nc2c(C)cc(C(OC)OC)nc2n1Cc1ccc(-c2ccccc2-c2nnn[nH]2)cc1 [Example 12, 2-ethyl-5-dimethoxymethyl-7-methyl-3-[2'-(1H-tetrazol-5-yl)-biphenyl-4-ylmethyl]-3H-imidazo[4,5-b]pyridine]	–
95.0	CCCCc1nc2cc(CCC(=O)OCC)c(C(OC)OC)nc2n1Cc1ccc(-c2ccccc2-c2nn[nH]n2)cc1 [Example 13, 2-butyl-5-dimethoxymethyl-6-[2-(ethoxycarbonyl)-ethyl-1-yl]-3-[2'-(1H-tetrazol-5-yl)-biphenyl-4-ylmethyl]-3H-imidazo[4,5-b]pyridine]	-32
72.0	CCCCc1nc2cc(-c3cccs3)c(C(OC)OC)nc2n1Cc1ccc(-c2ccccc2-c2nnn[nH]2)cc1 [Example 14, 2-butyl-5-dimethoxymethyl-6-(thiophen-2-yl)-3-[2'-(1H-tetrazol-5-yl)-biphenyl-4-ylmethyl]-3H-imidazo[4,5-b]pyridine]	–
82.0	CCCCc1nc2cc(CCc3ccccc3)c(C(OC)OC)nc2n1Cc1ccc(-c2ccccc2-c2nn[nH]n2)cc1 [Example 15, 2-butyl-5-dimethoxymethyl-6-(2-phenylethyl-1-yl)-3-[2'-(1H-tetrazol-5-yl)-biphenyl-4-ylmethyl]-3H-imidazo[4,5-b]pyridine]	-36
68.5	CCCCc1nc2cc(-c3ccc(C)cc3)c(C(OC)OC)nc2n1Cc1ccc(-c2ccccc2-c2nn[nH]n2)cc1 [Example 16, 2-butyl-5-dimethoxymethyl-6-(4-methylphenyl-1-yl)-3-[2'-(1H-tetrazol-5-yl)-biphenyl-4-ylmethyl]-3H-imidazo[4,5-b]pyridine]	–
82.0	CCCCc1nc2cc(-c3ccc(COCc4ccccc4)cc3)c(C(OC)OC)nc2n1Cc1ccc(-c2ccccc2-c2nn[nH]n2)cc1 [Example 17, 2-butyl-5-dimethoxymethyl-6-[4-(benzyloxymethyl)-phenyl-1-yl]-3-[2'-(1H-tetrazol-5-yl)-biphenyl-4-ylmethyl]-3H-imidazo[4,5-b]pyridine]	–
89.4	CCCCc1nc2cc(-c3ccc(CO)cc3)c(C(OC)OC)nc2n1Cc1ccc(-c2ccccc2-c2nn[nH]n2)cc1 [Example 18, 2-butyl-5-dimethoxymethyl-6-(4-hydroxymethylphenyl-1-yl)-3-[2'-(1H-tetrazol-5-yl)-biphenyl-4-ylmethyl]-3H-imidazo[4,5-b]pyridine]	-33
70.9	CCCCc1nc2cc(-c3ccccc3[N+](=O)[O-])c(C(OC)OC)nc2n1Cc1ccc(-c2ccccc2-c2nn[nH]n2)cc1 [Example 19, 2-butyl-5-dimethoxymethyl-6-(2-nitrophenyl-1-yl)-3-[2'-(1H-tetrazol-5-yl)-biphenyl-4-ylmethyl]-3H-imidazo[4,5-b]pyridine]	-29
89.2	CCCCc1nc2cc(-c3ccccc3N)c(C(OC)OC)nc2n1Cc1ccc(-c2ccccc2-c2nn[nH]n2)cc1 [Example 26, 2-butyl-5-dimethoxymethyl-6-(2-aminophenyl-1-yl)-3-[2'-(1H-tetrazol-5-yl)-biphenyl-4-ylmethyl]-3H-imidazo[4,5-b]pyridine]	–
87.8	CCCCc1nc2cc(Cc3ccccc3)c(C(OC)OC)nc2n1Cc1ccc(-c2ccccc2-c2nnn[nH]2)cc1 [Example 27, 2-butyl-5-dimethoxymethyl-6-benzyl-3-[2'-(1H-tetrazol-5-yl)-biphenyl-4-ylmethyl]-3H-imidazo[4,5-b]pyridine]	–

The next lines start with the compound.

Compound	Binding Inhibition(%) (angiotensin II receptor)	change in vivo at 3 mg (renal hypertensive rat) [%]
CCCCc1nc2cc(-c3ccccc3)c(C(OCC)OCC)nc2n1Cc1ccc(-c2ccccc2-c2nnn[nH]2)cc1 [Example 2, 2-butyl-5-diethoxymethyl-6-phenyl-3-[2'-(1H-tetrazol-5-yl)-biphenyl-4-ylmethyl]-3H-imidazo[4,5-b]pyridine]	–	-45
CCCCc1nc2cc(-c3ccccc3)c(C3OCCO3)nc2n1Cc1ccc(-c2ccccc2-c2nnn[nH]2)cc1 [Example 3, 2-butyl-5-(1,3-dioxolan-2-yl)-6-phenyl-3-[2'-(1H-tetrazol-5-yl)-biphenyl-4-ylmethyl]-3H-imidazo[4,5-b]pyridine]	70.6	-27
CCCCc1nc2cc(-c3ccccc3)c(C3OCCCO3)nc2n1Cc1ccc(-c2ccccc2-c2nn[nH]n2)cc1 [Example 4, 2-butyl-5-(1,3-dioxan-2-yl)-6-phenyl-3-[2'-(1-tetrazol-5-yl)-biphenyl-4-ylmethyl]-3H-imidazo[4,5-b]pyridine]	60.9	-33
CCCCc1nc2cc(-c3ccccc3)c(C3SCCS3)nc2n1Cc1ccc(-c2ccccc2-c2nnn[nH]2)cc1 [Example 5, 2-butyl-5-(1,3-dithiolan-2-yl)-6-phenyl-3-[2'-(1H-tetrazol-5-yl)-biphenyl-4-ylmethyl]-3H-imidazo[4,5-b]pyridine]	54.1	–
CCCCc1nc2cc(-c3ccc(OC)cc3)c(C(OC)OC)nc2n1Cc1ccc(-c2ccccc2-c2nn[nH]n2)cc1 [Example 6, 2-butyl-5-dimethoxymethyl-6-(4-methoxyphenyl-1-yl)-3-[2'-(1H-tetrazol-5-yl)-biphenyl-4-ylmethyl]-3H-imidazo[4,5-b]pyridine]	49.0	-25
CCCCc1nc2cc(Br)c(C(OC)OC)nc2n1Cc1ccc(-c2ccccc2-c2nnn[nH]2)cc1 [Example 7, 2-butyl-5-dimethoxymethyl-6-bromo-3-[2'-(1H-tetrazol-5-yl)-biphenyl-4-ylmethyl]-3H-imidazo[4,5-b]pyridine]	78.1	–
CCCCc1nc2cc(-c3ccc(F)cc3)c(C(OC)OC)nc2n1Cc1ccc(-c2ccccc2-c2nn[nH]n2)cc1 [Example 9, 2-butyl-5-dimethoxymethyl-6-(4-fluorophenyl-1-yl)-3-[2'-(1H-tetrazol-5-yl)-biphenyl-4-ylmethyl]-3H-imidazo[4,5-b]pyridine]	45.2	–
CCCCc1nc2ccc(C(OC)OC)nc2n1Cc1ccc(-c2ccccc2-c2nnn[nH]2)cc1 [Example 10, 2-butyl-5-dimethoxymethyl-3-[2'-(1H-tetrazol-5-yl)-biphenyl-4-ylmethyl]-3H-imidazo[4,5-b]pyridine]	83.6	–
CCCCc1nc2c(C)cc(C(OC)OC)nc2n1Cc1ccc(-c2ccccc2-c2nnn[nH]2)cc1 [Example 11, 2-butyl-5-dimethoxymethyl-7-methyl-3-[2'-(1H-tetrazol-5-yl)-biphenyl-4-ylmethyl]-3H-imidazo[4,5-b]pyridine]	52.5	–
